{"source": "patent US8901118B2", "about": "“Compounds and methods for kinase modulation, and indications therefor” (Plexxikon Inc., priority 2010, dated 2014)", "tested_on": "BCR-FMS BaF3 cells", "assay": "Splenomegaly mouse model, BCR-FMS BaF3 cells", "type": "in vivo", "conditions": "dosed once per day at 10 mg per kg", "method_in_brief": "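Female nu/nu mice given 5×10^6 engineered BaF3 cells i.v. on day 1; compound in 1.0% Polysorbate 80/0.5% HPMC/2.5% DMSO dosed orally once (sometimes twice) daily, days 10-18. Spleens weighed 4 h after final dose; % spleen growth inhibition calculated versus vehicle control.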"}
{"smiles": "O=C(c1cnc(NC2CCC(F)(F)CC2)c(F)c1)c1c[nH]c2ncnc(NC3CC3)c12", "note": "[Compound P-4053, [4-(cyclopropylamino)-7H-pyrrolo[2,3-d]pyrimidin-5-yl]-[6-[(4,4-difluorocyclohexyl)amino]-5-fluoro-3-pyridyl]methanone]", "values": [{"measurement": "% spleen growth inhibition, Fms", "result": 69, "unit": "%"}]}
